Common to all, as to type: functional
In assay [1] the test system is Rattus norvegicus. In words: Dose to produce minimal influence on mean blood pressure in anesthetized rats.
In assay [2] the test system is Rattus norvegicus. Briefly: Percentage change in heart rate from the initial value in urethane-anesthetized rats at 3 mg/kg intravenous dose.
Assay [3] is filed under the species Cavia porcellus. In words: Concentration required to produce 30% reduction (in vitro) from the initial spontaneous beat rates in isolated guinea pig atrium. Particulars: Cardiac atrium.

Structures are written as SMILES.

What is called EC30 is the concentration at which the effect reaches the 30% level. Low values mean an effect from little substance, high ones a need for much substance.

`COc1cc2c(cc1OC)CN(C1CCCN(CCCOc3ccc4c(c3)OCO4)C1)CC2` (centres undefined) returned a Dose in assay [1] of 10 mg/kg. This molecule yielded a Change in assay [2] of 47%. The same molecule gave an EC30 in assay [3] of 250 nM.

In assay [2], `COc1cc2c(cc1OC)CN(C1CCCN(CCCCc3ccccc3)C1)CC2` (centres undefined) had a Change of 23%. The EC30 in assay [3] stood at 540 nM.

`COc1cc2c(cc1OC)CN(C1CCCN(CCCc3ccccc3)C1)CC2` (centres undefined) gave an EC30 in assay [3] of 1200 nM.

In assay [3], `COc1cc2c(cc1OC)CN(C1CCCN(CCCOc3ccc4c(c3)-c3ccccc3C4)C1)CC2` (centres undefined) had a 30% effect concentration (EC30) of 4100 nM.

On to `COc1ccc(OCCCN2CCCC(N3CCc4cc(OC)c(OC)cc4C3)C2)cc1OC` (centres undefined), for which the Change in assay [2] is given as 47%. The EC30 in assay [3] amounted to 380 nM.

For `COc1cc2c(cc1OC)CN(C1CCCN(CCCOc3cc(OC)c(OC)c(OC)c3)C1)CC2` (centres undefined), in assay [3], the EC30 worked out at 1500 nM.

Turning to `COc1cc2c(cc1OC)CN(C1CCCN(CCCOc3ccc4ccccc4c3)C1)CC2` (centres undefined), the Change in assay [2] worked out at 23%. In assay [3], this molecule returned an EC30 of 840 nM.

Regarding `COc1cc2c(cc1OC)CN(C1CCCN(CCCCCc3ccccc3)C1)CC2` (centres undefined), it took 1300 nM to reach the 30% level in assay [3] (EC30).

Consider `COc1ccc(OCCCN2CCCC(N3CCc4cc(OC)c(OC)cc4C3)C2)cc1` (centres undefined), for which the Change in assay [2] came out at 40%. It took 390 nM to reach the 30% level in assay [3] (EC30).

The molecule `COc1cc2c(cc1OC)CN(C1CCCN(Cc3ccccc3)C1)CC2` (centres undefined) displayed a Change in assay [2] of 33%. In assay [3], the 30% effect level (EC30) was put at 830 nM.

As for `COc1cc2c(cc1OC)CN(C1CCCN(CCCOc3ccccc3)C1)CC2` (centres undefined), the Change in assay [2] is reported as 40%. Further, the EC30 in assay [3] worked out at 430 nM.

`COc1cc2c(cc1OC)CN(C1CCCN(CCCOc3ccc4c(c3)CCC4)C1)CC2` (centres undefined) gave a Change in assay [2] of 38%. This molecule returned an EC30 in assay [3] of 660 nM.

Regarding `COc1cc2c(cc1OC)CN(C1CCCN(CCc3ccccc3)C1)CC2` (centres undefined), the EC30 in assay [3] was found to be 2200 nM.

For `COc1ccc(CCN(C)CCCN2CCc3cc(OC)c(OC)cc3CC2=O)cc1OC` [ZATEBRADINE], in assay [2], the Change came to 47%. The EC30 in assay [3] was 260 nM.

Values taken from ChEMBL document CHEMBL1136080, “(+/-)-2-(3-Piperidyl)-1,2,3,4-tetrahydroisoquinolines as a new class of specific bradycardic agents” (2003).
